Where a SMILES comes first, the peptide text is derived from it.
Legend:
in vitro = conditions: human
Experimental: The peptides in the concentrations 2-200 μmol.l^−1 were incubated with the suspension of human red blood cells (5% v/v) for 1 h at 37° C. in a physiological solution at a final volume of 0.2 ml. The samples were then centrifuged for 5 min at 250 g, and the absorbance of the supernatant was determined at 540 nm. Supernatants of red blood cells suspended in physiological solution and in 0.2% (v/v) TRITON X100 in physiological solution served as controls for zero hemolysis (blank) and 100% hemolysis, respectively. Hemolytic activity is expressed as the peptide concentration required for lysis of 50% of human erythrocytes in the assay (LC50).

[1] = test system: S. aureus (Liberec) biofilm; assay: Bacterial biofilm, remaining metabolic activity (MTT); format: cell-based, Staphylococcus aureus; conditions: remaining metabolic activity of biofilm, 20 h
Experimental: (§1) Inoculum of S. aureus (Liberec) or P. aeruginosa (Liberec) cultivated overnight in BHI medium was diluted with fresh BHI medium containing 1% glucose to a final concentration to be ca. 10^8 CFU/ml. Then this was pipetted (100 μl) to 96-multiwell polystyrene plate which was incubated at 37° C. under rotary shaking (300 RPM) for 24 h. Medium without bacteria in the wells was used as a negative control. Supernatant from each well was drained and the biofilm formed on the bottom and on the walls of the wells was cautiously washed three times by sterile physiological solution (300 μl). The peptides tested in the concentrations of 1-128 μmol.l^−1 were prepared by twofold serial dilution of their stock solution (1 mmol.l^−1) in fresh BHI medium and then pipetted (100 μl) to the wells with formed biofilms. The biofilms covered by BHI medium without peptide were used as a positive control. The plates were then incubated for 20 h as described above. After that the liquid was drained out and wells were washed twice with sterile physiological solution.
(§2) The metabolic activity of surviving bacterial cells in the biofilm was determined by staining with MTT (3-(4,5-dimethylthiazol-2-yl)-2,5-diphenyl-2H-tetrazolium bromide) as follows: The mixture of BHI medium (100 μl) and 10 μl of the stock solution of MTT (5 mg/ml in physiological solution) was added to each well and the plate was incubated 40 min at 37° C. The liquid was drained out and the insoluble formazan crystals formed by reduction inside the biofilm were dissolved with dimethyl sulphoxide (100 μl). The intensity of staining in each well was measured as absorbance at 540 nm on a Tecan Infinite M200 Pro reader (Tecan GmbH, Austria). Remaining activity of surviving cells inside the biofilm was expressed for each well in percentage according to the following equation:
(§3) [formula] where A is the absorbance of the tested compound, ABL is the absorbance of the negative control, and AC is the absorbance of control biofilm.

[2] = test system: P. aeruginosa (Liberec) biofilm; assay: as above; format: cell-based, Pseudomonas aeruginosa; conditions: remaining metabolic activity of biofilm, 20 h
Experimental: as §1, §2, §3

[3] = test system: Candida albicans (Olomouc) biofilm; assay: C. albicans biofilm, remaining metabolic activity (XTT); format: cell-based
Experimental: Candida albicans (Olomouc) was sub-cultured overnight in YPD medium (10 g yeast extract (DIFCO, USA), 20 g peptone (OXOID), 20 g glucose (Penta) dissolved in 1 L of distilled water) at constant shaking (100 RPM) at 37° C. Next day, the overnight culture was diluted 1:100 into fresh YPD medium and incubated at constant shaking (200 RPM) at 37° C. until the mid-exponential growth phase was reached. Then the cells were harvested and washed twice by centrifugation in physiological solution (5000 RPM; 5 min). Cells were suspended in sterile salt solution and their optical density was determined at 600 nm.
A final yeast suspension was prepared at a cell density of 1×10^6 CFU (corresponding to optical density of 0.17 at 600 nm) in RPMI 1640 medium with L-glutamine (BioSera), NaHCO3 (2 g/l; Penta) and 0.165 mol.l^−1 MOPS (Duchefa)—further as RPMI broth medium 1.
Biofilms were formed on commercially available sterile, polystyrene, flat-bottomed, 96-well microtiter plates (TPP, SW). Cell suspension (100 μl) was pipetted into selected wells of a microtiter plate and incubated without shaking for 2 hours at 37° C. Afterwards, the wells were washed twice with sterile PBS buffer (1.44 g Na2HPO4, 0.24 g KH2PO4, 0.2 g KCl and 8 g NaCl in 1 l distilled water, pH=7; Penta). Fresh RPMI broth medium 1 (100 μl) was added to each well and the plate was sealed with parafilm and incubated without shaking for 48 hours at 37° C.
Planktonic and non-adherent cells were removed by threefold washing of the biofilm with sterile PBS buffer (200 μl). A twofold serial dilution was used to reach required peptide concentration (in RPMI broth medium 1) in each well. Peptide concentrations range was between 0.39-200 μmol.l^−1. Plates were then sealed with parafilm and incubated for 20 hours at 37° C.
The metabolic activity of surviving Candida cells in the treated biofilm was determined by staining with XTT (2,3-Bis(2-methoxy-4-nitro-5-sulphophenyl)-2H-tetrazolium-5-carboxanilide). Stock solution of PMS (phenazine methosulfate; 7.5 g/l; SIGMA, Czech Republic) stored at −20° C. was diluted in PBS buffer 1:100. Diluted PMS was further mixed (2:25) with stock solution of XTT (0.5 g/l; Alchimica, Slovakia) dissolved in PBS/RPMI broth medium (1:1). Mixture (100 μl) of PMS and XTT was added into treated biofilm in the wells and incubated for 90 min at 37° C. Then the intensity of staining in each well was measured as absorbance at 540 nm on a Tecan Infinite M200 Pro reader (Tecan GmbH, Austria). Remaining metabolic activity of the cells in the biofilm was expressed for each well in percentage and calculated as follows:
[formula] where A is the absorbance of tested compound, ABL is the absorbance of negative control and AC is the absorbance of control untreated biofilm. The non-inoculated wells served as negative control. Inoculated wells not treated with compound served as positive control. Amphotericin B was used as control drug to ensure quality of Candida albicans. The values of remaining metabolic activity of treated biofilms are shown at Table 5.

[4] = peptide concentration 8 μmol · l^−1
[5] = peptide concentration 16 μmol · l^−1
[6] = peptide concentration 32 μmol · l^−1
[7] = peptide concentration 64 μmol · l^−1
[8] = peptide concentration 128 μmol · l^−1
[9] = peptide concentration 6.25 μmol · l^−1, 20 hours
[10] = peptide concentration 12.5 μmol · l^−1, 20 hours
[11] = peptide concentration 25 μmol · l^−1, 20 hours
[12] = peptide concentration 50 μmol · l^−1, 20 hours
[13] = peptide concentration 100 μmol · l^−1, 20 hours
[14] = peptide concentration 200 μmol · l^−1, 20 hours

| Compound | CC50 at 1 h (in vitro) [µM] | Metabolic activity (%) S. aureus (Liberec) [1, 4] [%] | Metabolic activity (%) S. aureus (Liberec) [1, 5] [%] | Metabolic activity (%) S. aureus (Liberec) [1, 6] [%] | Metabolic activity (%) S. aureus (Liberec) [1, 7] [%] | Metabolic activity (%) S. aureus (Liberec) [1, 8] [%] | Metabolic activity (%) P. aeruginosa (Liberec) [2, 4] [%] | Metabolic activity (%) P. aeruginosa (Liberec) [2, 5] [%] | Metabolic activity (%) P. aeruginosa (Liberec) [2, 6] [%] | Metabolic activity (%) P. aeruginosa (Liberec) [2, 7] [%] | Metabolic activity (%) P. aeruginosa (Liberec) [2, 8] [%] | Metabolic activity of C. albicans (%) [3, 9] [%] | Metabolic activity of C. albicans (%) [3, 10] [%] | Metabolic activity of C. albicans (%) [3, 11] [%] | Metabolic activity of C. albicans (%) [3, 12] [%] | Metabolic activity of C. albicans (%) [3, 13] [%] | Metabolic activity of C. albicans (%) [3, 14] [%] |
| --- | --- | --- | --- | --- | --- | --- | --- | --- | --- | --- | --- | --- | --- | --- | --- | --- | --- |
| H-GIMSSLMKKLAAIIKK-NH2 [IX] | > 400 | 79.1 | 53.6 | 54.0 | 30.5 | 23.6 | 73.6 | 76.8 | 85.3 | 83.8 | 34.2 | 93.2 | 54.3 | 2.3 | 1.5 | 1.3 | 0.8 |
| CC[C@@H](C)[C@@H](NC(=O)CN)C(=O)N[C@H](CC(C)C)C(=O)N[C@H](CO)C(=O)N[C@H](CO)C(=O)N[C@H](CC(C)C)C(=O)N[C@H](CC(C)C)C(=O)N[C@H](CCCCN)C(=O)N[C@H](CCCCN)C(=O)N[C@H](CC(C)C)C(=O)N[C@H](CCCCN)C(=O)N[C@H](CCCCN)C(=O)N[C@@H](C(=O)N[C@@H](C(=O)N[C@H](C)C(=O)N[C@H](CCCCN)C(N)=O)[C@H](C)CC)[C@H](C)CC [IV] (HELM PEPTIDE1{G.[dI].[dL].[dS].[dS].[dL].[dL].[dK].[dK].[dL].[dK].[dK].[dI].[dI].[dA].[dK].[am]}$$$$V2.0) | 333 | 65.5 | 34.2 | 7.1 | 3.0 | 0.0 | 56.5 | 69.5 | 56.0 | 59.6 | 21.7 | 106.9 | 37.2 | 6.0 | 2.3 | 2.1 | 0.5 |
| H-GIMSSLMKKLKKIIAK-NH2 [I] | > 400 | 111.6 | 103.3 | 111.2 | 101.9 | 11.4 | 86.4 | 87.7 | 89.6 | 62.9 | 43.4 | 100.4 | 108.0 | 130.7 | 57.5 | 28.2 | 8.1 |
